Measured values reported in paper PMC8642699, “Dipeptidyl peptidase-IV inhibitory action of Calebin A: An in silico and in vitro analysis” (Journal of Ayurveda and Integrative Medicine, 2021).

Target: T1, Dipeptidyl peptidase-IV (DPP-IV) (Homo sapiens, UniProt P27487)
T1 construct: gene DPP4
Experiment: Fluorogenic enzyme inhibition assay (Cayman DPP-IV inhibitor screening kit […], Gly-Pro-AMC substrate)
Type: biochemical

T1 sequence (P27487 39-766): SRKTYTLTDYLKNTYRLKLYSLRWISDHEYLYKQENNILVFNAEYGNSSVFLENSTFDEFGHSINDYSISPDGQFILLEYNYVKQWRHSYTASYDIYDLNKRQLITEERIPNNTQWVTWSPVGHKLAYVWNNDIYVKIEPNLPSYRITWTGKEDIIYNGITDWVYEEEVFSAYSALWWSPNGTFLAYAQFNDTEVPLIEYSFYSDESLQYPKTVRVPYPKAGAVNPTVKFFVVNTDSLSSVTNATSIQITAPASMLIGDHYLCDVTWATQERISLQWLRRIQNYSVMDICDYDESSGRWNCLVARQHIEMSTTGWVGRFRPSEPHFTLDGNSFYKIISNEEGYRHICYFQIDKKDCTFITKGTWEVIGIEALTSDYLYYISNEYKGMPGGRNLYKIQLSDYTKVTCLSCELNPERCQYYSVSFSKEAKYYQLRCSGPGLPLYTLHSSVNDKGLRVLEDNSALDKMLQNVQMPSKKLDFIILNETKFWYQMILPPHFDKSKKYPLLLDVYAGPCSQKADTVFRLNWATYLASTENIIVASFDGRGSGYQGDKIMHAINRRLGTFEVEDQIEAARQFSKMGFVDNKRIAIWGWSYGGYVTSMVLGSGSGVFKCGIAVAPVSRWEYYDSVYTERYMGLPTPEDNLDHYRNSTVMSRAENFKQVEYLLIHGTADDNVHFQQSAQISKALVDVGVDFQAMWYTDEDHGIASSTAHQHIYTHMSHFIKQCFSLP

IC50: 6.09 ± 0.41 µM
Structure (SMILES): COc1cc(/C=C/C(=O)COC(=O)/C=C/c2ccc(O)c(OC)c2)ccc1O [CA, Calebin A]
